Test in all cases: growth of human tumour cells (NCI), 48 h
Assay [1] relates to BT-549 breast.
For assay [2], the system named is CAKI-1 renal.
Assay [3] has as its system MALME-3M melanoma.
Assay [4] relates to MDA-MB-435.
The subject of assay [5] is MDA-N.
Assay [6] concerns NCI/ADR-RES ovarian.
For assay [7], the system named is OVCAR-3 ovarian.
The subject of assay [8] is RPMI-8226 leukemia.
Assay [9] has as its system RXF 393 renal.
For assay [10], the system named is SF-539 CNS.
The test system of assay [11] is SK-MEL-2 melanoma.
Assay [12] has as its system SW-620 colon.
Assay [13] deals with TK-10 renal.
Assay [14] concerns NCI-H23 lung.
The test system of assay [15] is OVCAR-4 ovarian.
Assay [16] has as its system SK-OV-3 ovarian.

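Cultured in 96-well plates, cells were exposed to test compound for 48 hours across five concentrations. At the TGI there is no net growth.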

On to `S=C(S)N1CCN(c2ccc(Cl)c(Cl)c2)CC1`, for which the TGI in [1] was over 100 µM; in [2] it was 59.8 µM; in [3], 44.2 µM; in assay [4], 37.4 µM; in assay [5], 35 µM; in [6], over 100 µM. Further, the TGI in [7] is 50 µM; in assay [8] it was 45.8 µM; in assay [9] it was over 100 µM; in assay [10], 59.4 µM; in assay [11] it was 34.6 µM; in assay [12], 52.9 µM. For the same compound, in [13], the TGI is over 100 µM.

With `CCOC(=O)[C@@]12CCC(C1=O)[C@](C)(O)C[C@@H]2c1ccccc1`, the TGI in [1] was over 100 µM; in [2] it was over 100 µM; in assay [3], over 100 µM; in assay [4], 38.4 µM; in assay [5], 16.8 µM; in assay [14] it was over 100 µM. Moreover, the TGI in assay [6] is over 100 µM; in assay [7] it was 84 µM; in assay [15] it was over 100 µM; in assay [9] it was over 100 µM; in assay [10], over 100 µM; in [11], over 100 µM. The TGI in assay [16] was 96.9 µM; in assay [12], over 100 µM; in assay [13], over 100 µM.

`CCCCn1c2c(n(CCCC)c1=S)-c1c(n(CCCC)c(=S)n1CCCC)SSSS2`: the TGI was 28.1 µM in assay [1]; 2.03 µM in assay [3]; 23.9 µM in assay [4]; 23.2 µM in assay [5]; 14.3 µM in assay [14]; 71.5 µM in assay [6]. Moreover, the TGI was 2.65 µM in [7]; 9.6 µM in assay [15]; 10.2 µM in assay [8]; 14.6 µM in assay [9]; 2.94 µM in assay [10]; 6.8 µM in assay [11]. In addition, the TGI in [16] was over 100 µM; in [12] it was 3.8 µM; in [13] it was 22.9 µM.

With `N#CC1=C(N)OC(c2ccc([N+](=O)[O-])cc2)C1(C#N)C#N` (configuration not stated), the TGI in assay [1] was 33.1 µM; in assay [2], 13 µM; in assay [3] it was 24.1 µM; in assay [4], over 50.4 µM; in [5], 24.6 µM; in assay [14] it was 32.7 µM. Moreover, the TGI stood at 51.7 µM in [6]; 33.7 µM in [15]; 18.7 µM in assay [8]; 21 µM in [9]; 32.1 µM in assay [10]; 23 µM in [11]. Further, the TGI in assay [16] is over 100 µM; in assay [12] it was 33.9 µM; in [13], 26.7 µM.

For `O=C(CCc1cccc(O)c1)NCCc1ccc(O)cc1`, the TGI in assay [1], in assay [2], in [3], in [4], in assay [5] and in [14] was over 100 µM each time. The TGI in assay [6], in [7], in assay [15], in assay [9], in assay [10] and in [11] was over 100 µM throughout. The TGI in [16] and in [13] was over 100 µM throughout.

With `CN(C1=NCCO1)c1cccc2c1CCCC2`, the TGI in [1] is over 10 µM; in assay [2], over 10 µM; in [3] it was 9.3 µM; in [4], over 10 µM; in [5], over 10 µM; in assay [14] it was 8.81 µM. Also, the TGI in [6] was over 10 µM; in assay [15] it was 7.78 µM; in assay [8], over 10 µM; in assay [9], over 10 µM; in [10], over 10 µM; in assay [11] it was over 10 µM. The TGI in [16], in assay [12] and in assay [13] was over 10 µM each time.

For `CCOC(=O)CCC(NC(=O)c1ccc(OCc2nc3ccccc3n3cccc23)cc1)C(=O)OCC` (configuration not stated), the TGI in assay [1], in [2], in assay [3], in assay [4], in [5] and in assay [14] was over 100 µM each time. The TGI in assay [6], in assay [7], in [15], in [9], in [10] and in assay [11] was over 100 µM throughout. In addition, the TGI in assay [16], in [12] and in assay [13] was over 100 µM each time.

`CN(C)c1ccc(/C=C(\NC(=O)c2ccccc2)C2NC(Cc3c[nH]c4ccccc34)C(=O)O2)cc1` (configuration not stated): the TGI is over 45.2 µM in [1]; over 100 µM in assay [2]; 79.6 µM in assay [3]; over 100 µM in assay [4]; over 100 µM in assay [5]; over 100 µM in assay [14]. For the same compound, the TGI in assay [6] was over 100 µM; in assay [7], over 100 µM; in assay [15], over 100 µM; in [8], over 49 µM; in assay [9], over 100 µM; in assay [11] it was over 100 µM. For the same compound, the TGI in assay [16] is over 100 µM; in [12], over 100 µM; in assay [13], over 38.7 µM.

For `O=C(/C=C/c1ccco1)CC(=O)/C=C/c1ccco1`, the TGI in [1] was determined as 55.4 µM; in assay [2], 26.2 µM; in assay [3] it was 20.9 µM; in [4], 22.1 µM; in [5] it was 15 µM; in assay [14], 17.4 µM. Besides, the TGI in assay [6] is 21.7 µM; in assay [15], over 31.6 µM; in assay [8], 23.9 µM; in assay [9], 10.6 µM; in assay [10] it was 21.2 µM; in [11], 22.2 µM. Further, the figures for the TGI in assay [12] and in [13] were 17.1 µM and 61.2 µM, respectively.

As for `c1ccc2c(c1)Nc1nc3nonc3nc1N2`, the TGI in [1], in [2], in assay [3], in [4], in [5] and in assay [14] was over 100 µM throughout. For the same compound, the TGI in [6], in assay [15], in assay [8], in assay [9], in assay [11] and in [16] was over 100 µM throughout. Further, the TGI in assay [12] and in assay [13] was over 100 µM in each case.

In the case of `O=C1CC2(CCNCC2)C(=O)N1N1CCCC1`, the TGI in assay [1], in assay [2], in assay [3], in assay [4], in assay [5] and in [14] was over 100 µM throughout. Also, the TGI in assay [6], in assay [7], in assay [8], in [9], in assay [10] and in assay [16] was over 100 µM throughout. The TGI in assay [12] and in assay [13] was over 100 µM each time.

Take `O=c1[nH]nc(Cc2ccc(Cl)cc2)n1/N=C\c1ccc(/C=N/n2c(Cc3ccc(Cl)cc3)n[nH]c2=O)cc1`: the TGI in assay [1], in [2], in assay [3], in [4], in [5] and in assay [14] was over 100 µM in each case. The TGI in assay [6], in assay [7], in assay [15], in assay [8], in [9] and in assay [11] was over 100 µM throughout. In addition, the TGI in [12] and in assay [13] was over 100 µM in each case.

In the case of `O=[N+]([O-])c1cc(-[n+]2cc([O-])on2)ccc1F`, the TGI is 31.3 µM in assay [1]; 4.2 µM in assay [2]; 29 µM in assay [3]; 29.8 µM in assay [4]; 30.7 µM in assay [5]; 33.5 µM in assay [14]. The TGI in [6] was 52 µM; in assay [7], 32.6 µM; in assay [15] it was 30.4 µM; in assay [8] it was over 100 µM; in [9] it was 27.2 µM; in [11], 31 µM. In addition, the TGI turned out to be 35.8 µM in [16], 38.3 µM in assay [12] and 33.1 µM in assay [13].

On to `COc1cc([C@@H]2c3[nH]c4ccccc4c3C(Nc3ccc([N+](=O)[O-])cc3)[C@H]3COC(=O)N23)cc(OC)c1O` (some centres not stated), for which the TGI was 4.87 µM in assay [1]; 2.11 µM in [2]; 1.31 µM in [3]; 2.45 µM in assay [4]; 2.81 µM in [5]; 1.51 µM in assay [14]. Besides, the TGI was over 100 µM in [6]; 1.98 µM in assay [7]; 5.91 µM in assay [15]; 1.04 µM in assay [9]; 0.302 µM in assay [10]; over 72.7 µM in assay [11]. The TGI in [16] came to 2.31 µM; in assay [13] it was 0.754 µM.

Regarding `CC(=O)N[C@H]1CCCC[C@@H]1OC(C)=O`, the TGI in [1], in assay [2], in assay [3], in assay [4], in assay [5] and in assay [14] was over 100 µM in each case. In addition, the TGI in assay [6], in assay [7], in assay [15], in assay [8], in assay [9] and in assay [11] was over 100 µM throughout. Besides, the TGI in assay [16], in assay [12] and in assay [13] was over 100 µM throughout.

For the origin of these results see PubChem BioAssay (NCI).
